Test results taken from paper PMC3692431, “Anticonvulsant Activity of B2, an Adenosine Analog, on Chemical Convulsant-Induced Seizures” (PLoS ONE, 2013).

Experiments:
4-AP-induced seizures = 4-AP-induced seizures in mice; format: in vivo; conditions: 80 mg/kg, positive control, 4-AP 13 mg/kg
Protocol: (§1) KA was dissolved in saline and the pH was adjusted to neutrality. The final concentration of KA was 0.7 µg/µl, and the convulsant dose was 1 µl (i.c.v.). […] The selective adenosine receptor antagonist DPCPX or SCH58261 was administered (i.p.) 5 min before administration of B2 or vehicle.
(§2) Mice were injected with B2 (1.25, 5, 20 mg/kg), carbamazepine (80 mg/kg) or vehicle 20 min before administration of strychnine (1.5 mg/kg) or 4-AP (13 mg/kg). […] The time of latency to seizure onset and mortality rate were recorded.

[1] = system: strychnine-induced seizures; assay: Strychnine-induced seizures in mice; format: in vivo; conditions: 80 mg/kg, positive control; strychnine 1.5 mg/kg i.p.
Protocol: as §1, §2

PTZ-induced seizures [2] = assay: PTZ-induced seizures with adenosine receptor antagonist pretreatment; format: in vivo, mice; conditions: PTZ 85 mg/kg
Protocol: as §1
Twenty min later, mice were admdinistered with PTZ (85 mg/kg).

KA-induced seizures = KA-induced seizures in mice; format: in vivo; conditions: 10 mg/kg, positive control, KA 0.7 µg i.c.v.
Protocol: as §1
The left lateral ventricle (0.6 mm posterior, 1.9 mm lateral, and 2.1 mm ventral to bregma) was cannulated as described. After a 7-day recovery period, mice were injected with either B2 (1.25, 5, 20 mg/kg) or vehicle. Twenty minutes later, an intracerebroventricular injection of KA (0.7 µg/µl, 1 µl) was administered without anesthesia. The animals were then observed for a minimum of 60 min. Seizure severity was determined according to the scoring system described by Racine. At the end of the experiment, cannulae placement was verified.

PTZ-induced seizures [3] = assay: PTZ-induced seizures in mice; format: in vivo; conditions: 10 mg/kg i.p.; PTZ 85 mg/kg s.c.; P<0.001
Protocol: The latency of seizure onset, number of seizures, and mortality rate was recorded for the picrotoxin-injected mice. For the PTZ-injected mice, we recorded the latency of seizure onset, number of seizures, and presence of clonic seizures.

## NC(=O)N1c2ccccc2C=Cc2ccccc21 [Carbamazepine, carbamazepine, reference compound]
4-AP-induced seizures; P<0.001
  effect on latency to seizure onset: significantly prolonged
4-AP-induced seizures; P<0.05
  effect on mortality rate: reduced the mortality rate
[1]
  protection against strychnine-induced seizures: complete protection

## CCCn1c(=O)c2[nH]c(C3CCCC3)nc2n(CCC)c1=O [DPCPX, 8-Cyclopentyl-1,3-dipropylxanthine]
PTZ-induced seizures [2]; DPCPX 0.3125–1.25 mg/kg i.p. alone
  effect on onset time of seizure, antagonist alone: did not affect
PTZ-induced seizures [2]; DPCPX pretreatment 5 min before B2 5 mg/kg, P<0.05
  effect on the delaying effect of B2 on onset times of seizure: significantly blocked

## CN1C(=O)CN=C(c2ccccc2)c2cc(Cl)ccc21 [Diazepam, diazepam, reference compound]
KA-induced seizures
  protection against KA-induced seizures: significant protection
PTZ-induced seizures [3]
  protection against PTZ-induced seizures: completely protected

## Nc1nc2c(cnn2CCc2ccccc2)c2nc(-c3ccco3)nn12 [SCH58261, 5-amino-7-(β-phenylethyl)-2-(2-furyl)-pyrazolo-[4,3-e]-1,2,4-triazolo[1,5-c]-pyrimidine]
PTZ-induced seizures [2]; SCH58261 0.08–1.25 mg/kg i.p. alone
  effect on onset time of seizure, antagonist alone: did not affect
PTZ-induced seizures [2]; SCH58261 pretreatment 5 min before B2 5 mg/kg
  effect on the delaying effect of B2 on seizure onset time: did not affect the delaying effect
